Data set [1] has as its system cytochrome P450. The experiment in a line: Cytochrome P450 activity in particulate matter-treated A549 cells (P450-Glo Assay). It is filed as cell-based. The note with it: A549 human alveolar epithelial cells; peptide pretreatment 1 hour at 20, 100, 200 μM; then 50 μg/cm^2 urban particulate matter 24 hours; FIG. 4. The method, then:
In addition, in order to confirm whether the peptide can suppress respiratory damage caused by particulate matter, an experiment for measuring the activity of cytochrome P450 was also performed on A549 cells, which are human alveolar epithelial cells.
First, human alveolar epithelial cells, A549 cells were seeded into a 96-well plate at a density of 1.2×10^4 cells/well. After overnight incubation, the media were replaced with serum-free media. The alveolar epithelial cells, A549 cells were pretreated with the synthesized peptides for 1 hour at each concentration (20 μM, 100 μM, and 200 μM). Then, the cells were treated with 50 μg/cm^2 of urban particulate matter (Sigma, NIST1648A) for 24 hours. After the treated cells were collected, the activity of cytochrome P450 was measured using P450-Glo™ Assay kit (Promega).

In data set [2] the test system is cytochrome P450. The experiment in a line: Cytochrome P450 activity in particulate matter-treated HaCaT cells (P450-Glo Assay). It is filed as cell-based. The note with it: HaCaT human keratinocytes; peptide pretreatment 1 hour at 20, 100, 200 μM; then 50 μg/cm^2 urban particulate matter 24 hours; FIG. 3. The source says:
When polyaromatic hydrocarbons (PAHs) present in particulate matter penetrate into cells and bind to AHR, it promotes nuclear translocation of AHR. It is known that the AHR translocated into the nucleus forms a complex AHR/ARNT with an AHR nuclear translocator (ARNT), and this complex act as a transcription factor to promote the expression of cytochrome P450 (CYPs). In order to confirm the effect of the synthesized peptide in inhibiting cell damage caused by particulate matter, an experiment was performed for confirming whether the peptide inhibits the activity of cytochrome P450 after the cells were treated with particulate matter.
First, HaCaT cells, which are human keratinocytes, were seeded into a 96-well plate at a density of 1×10^4 cells/well. After overnight incubation, the media were replaced with serum-free media. The keratinocytes, HaCaT were pretreated with the synthesized peptides for 1 hour at each concentration (20 μM, 100 μM, and 200 μM). Then, the cells were treated with 50 μg/cm^2 of urban particulate matter (Sigma, NIST1648A) for 24 hours. After the keratinocytes were collected, the activity of cytochrome P450 was measured using P450-Glo™ Assay kit (Promega).

No end group written: not given here.

One sequence from patent US12384817B2, “Peptide having protective activity against cell damage caused by particulate matter, and uses for same” (CAREGEN CO., LTD., priority 2020, dated 2025) can be followed below.

As to SSNAEVLALF [SEQ ID NO: 1, SSNAEVLALF], the “activity of cytochrome P450 increased by the treatment of particulate matter” value in data set [1] and in data set [2] was “reduced in a concentration dependent manner” throughout.
